{"source": "patent EP1131337B1", "about": "(DABUR PHARMA LTD., priority 1998, dated 2000)", "key": {"human melanomas": {"tested_on": "human melanomas", "settings": "athymic mice carrying human melanomas; Nature Medicine 1995, WO 96/29068; cited from earlier work"}, "[1]": {"tested_on": "P388 lymphocytic leukemia cells", "settings": "Choi et al., Planta Medica 1988; cited from earlier work"}, "lymphoma cells (U937)": {"tested_on": "lymphoma cells (U937)", "test": "MTT cytotoxicity assay, lymphoma", "assay_type": "cell-based, human", "settings": "72 hours", "procedure": "(§1) After 72 hours, the assay was terminated and percent cyotoxicities calculated."}, "[2]": {"tested_on": "prostate cancer cells (DU 145)", "test": "MTT cytotoxicity assay, prostate cancer", "assay_type": "cell-based, human", "settings": "72 hours", "procedure": "as §1"}, "[3]": {"tested_on": "lung cancer cells (L 132)", "test": "MTT cytotoxicity assay, lung cancer", "assay_type": "cell-based, human", "settings": "72 hours", "procedure": "as §1"}, "[4]": {"tested_on": "ovarian cancer cells (PA-1)", "test": "MTT cytotoxicity assay, ovarian cancer", "assay_type": "cell-based, human", "settings": "72 hours", "procedure": "as §1"}, "[5]": {"tested_on": "laryngeal cancer cells(HeP.2)", "test": "MTT cytotoxicity assay, laryngeal cancer", "assay_type": "cell-based, human", "settings": "72 hours", "procedure": "as §1"}, "[6]": {"tested_on": "colon cancer cells (HT29)", "test": "MTT cytotoxicity assay, colon cancer", "assay_type": "cell-based, human", "settings": "72 hours", "procedure": "as §1"}, "human leukemia (MOLT-4)": {"tested_on": "human leukemia (MOLT-4)", "test": "MTT cytotoxicity assay, leukemia", "assay_type": "cell-based", "settings": "72 hours", "procedure": "as §1"}}, "data": [{"smiles": "C=C(C)[C@@H]1CC[C@]2(C(=O)O)CC[C@]3(C)[C@H](CC[C@@H]4[C@@]5(C)CC[C@H](O)C(C)(C)[C@@H]5CC[C@]43C)[C@@H]12", "note": "[betulinic acid]", "values": [{"measurement": "toxicity", "setting": "human melanomas", "value": "without toxicity"}]}, {"smiles": "C=C(C)[C@@H]1CC[C@]2(C(=O)O)CC[C@]3(C)[C@H](CC[C@@H]4[C@@]5(C)CC[C@H](OC(C)=O)C(C)(C)[C@@H]5CC[C@]43C)[C@@H]12", "note": "[betulinic acid 3-monoacetate]", "values": [{"measurement": "ED50", "setting": "[1]", "value": 10.5, "unit": "µg/mL"}]}, {"smiles": "CC(C)C1CCC2(C(=O)O)CCC3(C)C(CCC4C5(C)CCC(=NOCc6ccc([N+](=O)[O-])cc6)C(C)(C)C5CCC43C)C12", "note": "(stereo not shown) [compound 1098]", "values": [{"measurement": "ED50 Lymphoma 0 937", "setting": "lymphoma cells (U937)", "value": 0.4, "unit": "µg/mL"}, {"measurement": "ED50 Prostate DU145", "setting": "[2]", "value": 1.5, "unit": "µg/mL"}, {"measurement": "ED50 Lung L132", "setting": "[3]", "value": 1.3, "unit": "µg/mL"}, {"measurement": "ED50 Ovary PA-1", "setting": "[4]", "value": 0.9, "unit": "µg/mL"}, {"measurement": "ED50 Larynx Hep.2", "setting": "[5]", "value": 1.0, "unit": "µg/mL"}, {"measurement": "ED50 Colon HT-29", "setting": "[6]", "value": 2.6, "unit": "µg/mL"}, {"measurement": "ED50 Leukemia MOLT-4", "setting": "human leukemia (MOLT-4)", "value": 0.5, "unit": "µg/mL"}]}, {"smiles": "C=C(C)[C@@H]1CC[C@]2(C(=O)OC)CC[C@]3(C)[C@H](CC[C@@H]4[C@@]5(C)CC[C@H](O)C(C)(C)[C@@H]5CC[C@]43C)[C@@H]12", "note": "[betulinic acid methyl ester]", "values": [{"measurement": "ED50", "setting": "[1]", "value": 6.8, "unit": "µg/mL"}]}]}
